Measured values as given in article PMC10065276, “Enhanced therapeutic window for antimicrobial Pept-ins by investigating their structure-activity relationship” (PLOS ONE, 2023).
Positions of bridges follow the written chain, without caps; N, C: chain ends. Residues, ends and D or L forms follow the SMILES beside them.

Test system: E. coli BL21
Details: BL21, 17 h
Procedure: The peptide MIC was determined via the broth microdilution assay according to the EUCAST guideline, using 96-well polystyrene flat-bottom microtiter plates (BD Biosciences). Briefly, a single colony was inoculated in 5 mL Mueller-Hinton (MH) medium and incubated, while shaking at 37°C, to the end-exponential growth phase. The bacterial culture was subsequently diluted to 0.005 McFarland (McF) (~1.5x10^6 CFU/mL) with fresh MH medium. Two-fold serial peptide-dilutions were prepared in 50 μL MH medium resulting in a concentration range of 0.75 to 100 μg/mL (at least three wells for each concentration). Afterwards, 50 μL of the freshly diluted bacterial suspension (0.005 McF) was mixed with different peptide concentrations in the 96-well plate, performed in triplicates. The plate was ultimately incubated at 37°C overnight without shaking for 17 hours. The MIC was determined as the lowest peptide concentration without visible bacterial growth.

## CC(C)C[C@H](NC(=O)CNC(=O)[C@@H](N)CCCNC(=N)N)C(=O)NCC(=O)N[C@@H](CC(C)C)C(=O)N[C@@H](C)C(=O)N[C@@H](CC(C)C)C(=O)N[C@H](C(=O)N[C@@H](CCCNC(=N)N)C(=O)N[C@@H](CCCNC(=N)N)C(=O)N1CCC[C@H]1C(=O)N[C@@H](CCCNC(=N)N)C(=O)NCC(=O)N[C@@H](CC(C)C)C(=O)N[C@@H](C)C(=O)N[C@@H](CC(C)C)C(=O)N[C@@H](C)C(=O)N[C@@H](CC(C)C)C(=O)N[C@H](C(=O)N[C@@H](CCCNC(=N)N)C(=O)N[C@@H](CCCNC(=N)N)C(=O)O)C(C)C)C(C)C [Peptide P2_G15A] (H-RGLGLALVRRPRGLALALVRR-OH)
  BL21 MIC: 12.50 µg/mL

## CC(C)C[C@H](NC(=O)CNC(=O)[C@H](CCCNC(=N)N)NC(=O)[C@H](CCCNC(=N)N)NC(=O)[C@@H]1CCCN1C(=O)[C@H](CCCNC(=N)N)NC(=O)[C@@H](NC(=O)[C@H](CC(C)C)NC(=O)[C@H](C)NC(=O)[C@H](CC(C)C)NC(=O)CNC(=O)[C@H](CC(C)C)NC(=O)CNC(=O)[C@H](CCCNC(=N)N)NC(=O)[C@@H](N)CCCNC(=N)N)C(C)C)C(=O)NCC(=O)N[C@@H](CC(C)C)C(=O)N[C@@H](C)C(=O)N[C@@H](CC(C)C)C(=O)N[C@H](C(=O)N[C@@H](CCCNC(=N)N)C(=O)O)C(C)C [Peptide P2_GK_10] (H-RRGLGLALVRPRRGLGLALVR-OH)
  BL21 MIC: 12.50 µg/mL

## CC(C)C[C@H](NC(=O)CNC(=O)[C@H](CCCNC(=N)N)NC(=O)[C@@H]1CSSC[C@H](NC(=O)[C@@H](NC(=O)[C@H](CC(C)C)NC(=O)[C@H](C)NC(=O)[C@H](CC(C)C)NC(=O)CNC(=O)[C@H](CC(C)C)NC(=O)CNC(=O)[C@@H](N)CCCNC(=N)N)C(C)C)C(=O)N[C@@H](CCCNC(=N)N)C(=O)N[C@@H](CCCNC(=N)N)C(=O)N[C@@H](CCCNC(=N)N)C(=O)N[C@@H](Cc2ccccc2)C(=O)N1)C(=O)NCC(=O)N[C@@H](CC(C)C)C(=O)N[C@@H](C)C(=O)N[C@@H](CC(C)C)C(=O)N[C@H](C(=O)N[C@@H](CCCNC(=N)N)C(=O)N[C@@H](CCCNC(=N)N)C(=O)O)C(C)C [Peptide P2_H12_FC] (H-RGLGLALVCRRRFCRGLGLALVRR-OH; disulfide 9-14)
  BL21 MIC, SS bond: 3.50 µg/mL
  BL21 MIC, no SS bond: 6.25 µg/mL

## CC(C)C[C@H](NC(=O)CNC(=O)[C@H](CCCNC(=N)N)NC(=O)[C@@H]1CSSC[C@H](NC(=O)[C@@H](NC(=O)[C@H](CC(C)C)NC(=O)[C@H](C)NC(=O)[C@H](CC(C)C)NC(=O)CNC(=O)[C@H](CC(C)C)NC(=O)CNC(=O)[C@@H](N)CCCNC(=N)N)C(C)C)C(=O)N[C@@H](CCCNC(=N)N)C(=O)N[C@@H](CCCNC(=N)N)C(=O)N[C@@H]([C@@H](C)O)C(=O)NCC(=O)N1)C(=O)NCC(=O)N[C@@H](CC(C)C)C(=O)N[C@@H](C)C(=O)N[C@@H](CC(C)C)C(=O)N[C@H](C(=O)N[C@@H](CCCNC(=N)N)C(=O)N[C@@H](CCCNC(=N)N)C(=O)O)C(C)C [Peptide P2_H12_TG] (H-RGLGLALVCRRTGCRGLGLALVRR-OH; disulfide 9-14)
  BL21 MIC, SS bond: 6.50 µg/mL
  BL21 MIC, no SS bond: 6.25 µg/mL

## CC(C)C[C@H](NC(=O)CNC(=O)[C@H](CCCNC(=N)N)NC(=O)[C@@H]1CSSC[C@H](NC(=O)[C@@H](NC(=O)[C@H](CC(C)C)NC(=O)[C@H](C)NC(=O)[C@H](CC(C)C)NC(=O)CNC(=O)[C@H](CC(C)C)NC(=O)CNC(=O)[C@@H](N)CCCNC(=N)N)C(C)C)C(=O)N[C@@H](CCCNC(=N)N)C(=O)N[C@@H](CCCNC(=N)N)C(=O)N[C@H](Cc2ccccc2)C(=O)N2CCC[C@H]2C(=O)N1)C(=O)NCC(=O)N[C@@H](CC(C)C)C(=O)N[C@@H](C)C(=O)N[C@@H](CC(C)C)C(=O)N[C@H](C(=O)N[C@@H](CCCNC(=N)N)C(=O)N[C@@H](CCCNC(=N)N)C(=O)O)C(C)C [Peptide P2_H12_fP]
  BL21 MIC, SS bond: 3.13 µg/mL
  BL21 MIC, no SS bond: 6.25 µg/mL
